Consider eight compounds from US7453000B2, “Substituted oxazolobenzoisothiazole dioxide derivatives method for production and use thereof” (Sanofi-Aventis Deutschland GmbH, priority 2004, dated 2008).

This test addresses T1, human PTP1B (Homo sapiens, UniProt P18031).
T1 construct: without the carboxy-terminal hydrophobic region (corresponding to 1-299 aa); made in house; host or cells: Sf9 insect cells (Spodoptera frugiperda), baculovirus (Bac-to-Bac, pFASTBAC)
T1 sequence (P18031 1-299): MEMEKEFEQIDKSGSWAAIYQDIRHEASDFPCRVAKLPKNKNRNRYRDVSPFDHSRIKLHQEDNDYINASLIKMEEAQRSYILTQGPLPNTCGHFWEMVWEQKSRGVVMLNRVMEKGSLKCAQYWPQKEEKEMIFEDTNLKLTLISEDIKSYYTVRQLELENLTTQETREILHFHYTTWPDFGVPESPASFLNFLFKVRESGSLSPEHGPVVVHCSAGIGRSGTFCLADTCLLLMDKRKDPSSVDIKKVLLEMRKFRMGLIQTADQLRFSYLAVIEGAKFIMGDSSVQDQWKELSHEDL
In words: Enzymatic test system for detecting inhibition of a phosphatase (recombinant hPTP1B; phosphopeptide dephosphorylation / p-nitrophenyl phosphate cleavage). The class given is biochemical. The note with it: inhibition of recombinant hPTP1B (1-299 aa, expressed in Sf9 cells); Table 2 does not say which substrate procedure (A phosphopeptide or B pNPP). As to the method: The activity of the compounds was tested as follows:
Enzymatic test systems for detecting inhibition of a phosphatase
The compounds of the formula I were tested for their phosphatase-inhibiting effect in an in vitro assay. The enzyme preparation and the performance of the assay was carried out as follows.
Obtaining the Enzyme Preparation:
• Sf9 cells (=Spodoptera frugiperda cell type; obtainable from invitrogen) are cultured in Grace's supplemented medium (Gibco-BRL) with 10% heat-inactivated fetal calf serum (Gibco-BRL) in spinner flasks at 28° C. in accordance with the protocol of Summers and Smith (A Manual for Methods for Baculoviruns Vectors and Insect Culture Procedures [Bulletin No. 15555]. Texas A & M University, Texas Agricultural Experiment Station, College Station, Tex., 1987). • Construction of recombinant Baculovirus transfer vectors: cDNA coding for the regulatory and catalytic domains of human PTP1B, but without the carboxy-terminal hydrophobic region (corresponding to 1-299 aa) was obtained by polymerase chain reaction via primers with attached cloning sites and suitable cDNA templates (obtainable for example from invitrogen) and then cloned into baculovirus expression vectors (Amersham Pharmacia Biotech.). The recombinant baculoviruses were prepared with the aid of the Bac-to-Bac baculovirus expression system (obtainable from Gibco-BRL). The gene was cloned into the pFASTBAC donor plasmid (obtainable from Life Technologies). The resulting plasmid was transformed into competent DH10BAC Escherichia coli cells (obtainable from Life Technologies). After transposition and antibiotic selection, the recombinant plasmid DNA was isolated from selected E. coli colonies and then used for the transfection of Sf9 insect cells. The virus particle in the supernatant medium was amplified three times up to a viral stock volume of 500 ml. B) Production of Recombinant Protein: • Baculovirus infection of a 500 ml spinner culture of Sf9 cells was essentially carried out as described by Summers and Smith (see above). Sf9 cells at a density of 1-3×10^6 cells/ml were pelleted by centrifugation at 300 g for 5 min, the supernatant was removed, and the cells were resuspended in a density of 1×10^7 cells/ml in a suitable recombinant viral stock (MOI 10). After careful shaking at room temperature for 1.5 h, fresh medium was added in order to achieve a cell density of 1×10^6 cells/ml. The cells were then cultured in suspension at 28° C. for suitable periods after postinfection. C) Cellular Fractionation and Complete Cell Extracts of Infected Sf9 Cells: • After the postinfection, aliquots were subjected to an analysis of protein expression by SDS-PAGE and Western blot analysis. The cellular fractionation was carried out as described (Cromlish, W. and Kennedy, B. Biochem. Pharmacol. 52: 1777-1785, 1996). Complete cell extracts were obtained from 1 ml aliquots of the infected Sf9 cells after certain times postinfection. The pelleted cells (300×g, 5 min) were washed once in phosphate-buffered saline (4° C.), resuspended in 50 μl of water and disrupted by repeated freezing/thawing. Protein concentrations were determined with the aid of the Bradford method and bovine serum albumin as standard. Assay Procedure: A) Dephosphorylation of a Phosphopeptide: • This assay is based on the release of phosphate from a consensus substrate peptide which is detected in the nanomolar concentration range by the malachite green/ammonium molybdate method (Lanzefta, P. A., Alvarez, L. J., Reinach, P. S., Candia, O. A. Anal Biochem. 100: 95-97, 1979) adapted for the microtiter plate format. The dodecatrisphosphopeptide TRDIYETDYYRK (Biotrend, Cologne) corresponds to amino acids 1142-1153 of the catalytic domain of the insulin receptor and is (auto)phosphorylated on tyrosine residues 1146, 1150 and 1151. […]

With `O=S1(=O)Cc2cc(Nc3ncc(-c4ccc(C(F)(F)F)cc4)o3)ccc2N1` [Example 3], the IC50 (in general, the midpoint of a concentration-inhibition curve) came to 15.7 µM.

Take `O=C(O)COc1ccc(-c2cnc(Nc3ccc4c(c3)CS(=O)(=O)N4)o2)cc1` [Example 8]: the IC50 worked out at 290 µM.

As for `CC(C)(C)c1cc(-c2cnc(Nc3ccc4c(c3)CS(=O)(=O)N4)o2)cc(C(C)(C)C)c1O` [Example 4], the IC50 came out at 6.12 µM.

With `O=S1(=O)Cc2cc(Nc3ncc(-c4ccc(-c5ccc(Cl)cc5)cc4)o3)ccc2N1` [Example 5], the half-inhibitory concentration (IC50) is 2.16 µM.

Consider `N#Cc1cccc(-c2cnc(Nc3ccc4c(c3)CS(=O)(=O)N4)o2)c1` [Example 1], for which the IC50 turned out to be 7.3 µM.

`O=S1(=O)Cc2cc(Nc3ncc(-c4ccc(Br)s4)o3)ccc2N1` [Example 6]: the IC50 came to 9.44 µM.

Regarding `O=C(O)c1cc(-c2cnc(Nc3ccc4c(c3)CS(=O)(=O)N4)o2)ccc1O` [Example 7], the IC50 was 162 µM.

As for `O=S1(=O)Cc2cc(Nc3ncc(-c4cccc(Br)c4)o3)ccc2N1` [Example 2], the IC50 was determined as 12.6 µM.
